Experiments:
[1] = target: CAMKK2 (Homo sapiens, UniProt Q96RR4); assay: KINOMEscan; format: binding; settings: 1 μM of compound 4; read-out: POC
[2] = target: DMPK (Homo sapiens, UniProt Q09013); assay: KINOMEscan; format: binding; settings: 1 μM of compound 4; read-out: POC
[3] = target: T1, EGFR(S752-1759del) (Homo sapiens, UniProt P00533, DEL752-759); assay: KINOMEscan; format: binding; settings: 1 μM of compound 4; read-out: POC
T1 construct: purchased Eurofins DiscoverX (KINOMEscan service)

[4] = target: T2, FGFR1 (Homo sapiens, UniProt P11362); assay: KINOMEscan; format: binding; settings: 1 μM of compound 4; read-out: POC
T2 construct: purchased Eurofins DiscoverX Corporation

[5] = target: T3, FLT1 (Homo sapiens, UniProt P17948); assay: KINOMEscan; format: binding; settings: 1 μM of compound 4; read-out: POC
T3 construct: purchased Eurofins DiscoverX Corporation

[6] = target: T4, HCK (Homo sapiens, UniProt P08631); assay: KINOMEscan; format: binding; settings: 1 μM of compound 4; read-out: POC
T4 construct: purchased Eurofins DiscoverX Corporation

[7] = target: IRAK3 (Homo sapiens, UniProt Q9Y616); assay: KINOMEscan; format: binding; settings: 1 μM of compound 4; read-out: POC
[8] = target: JAK2(JH1domain-catalytic) (Homo sapiens, UniProt O60674); assay: KINOMEscan; format: binding; settings: 1 μM of compound 4; read-out: POC
[9] = target: JAK3(JH1domain-catalytic) (Homo sapiens, UniProt P52333); assay: KINOMEscan; format: binding; settings: 1 μM of compound 4; read-out: POC
[10] = target: MAPKAPK2 (Homo sapiens, UniProt P49137); assay: KINOMEscan; format: binding; settings: 1 μM of compound 4; read-out: POC
[11] = target: MAPKAPK5 (Homo sapiens, UniProt Q8IW41); assay: KINOMEscan; format: binding; settings: 1 μM of compound 4; read-out: POC
[12] = target: MARK1 (Homo sapiens, UniProt Q9P0L2); assay: KINOMEscan; format: binding; settings: 1 μM of compound 4; read-out: POC
[13] = target: MEK2 (Homo sapiens, UniProt P36507); assay: KINOMEscan; format: binding; settings: 1 μM of compound 4; read-out: POC
[14] = target: MUSK (Homo sapiens, UniProt O15146); assay: KINOMEscan; format: binding; settings: 1 μM of compound 4; read-out: POC
[15] = target: MYLK4 (Homo sapiens, UniProt Q86YV6); assay: KINOMEscan; format: binding; settings: 1 μM of compound 4; read-out: POC
[16] = target: T5, NIM1 (Homo sapiens, UniProt Q8IY84); assay: KINOMEscan; format: binding; settings: 1 μM of compound 4; read-out: POC
T5 construct: purchased Eurofins DiscoverX Corporation (KINOMEscan)

[17] = target: T6, PAK2 (Homo sapiens, UniProt Q13177); assay: KINOMEscan; format: binding; settings: 1 μM of compound 4; read-out: POC
T6 construct: purchased Eurofins DiscoverX Corporation (KINOMEscan)

[18] = target: T7, PDGFRB (Homo sapiens, UniProt P09619); assay: KINOMEscan; format: binding; settings: 1 μM of compound 4; read-out: POC
T7 construct: purchased Eurofins DiscoverX Corporation (KINOMEscan)

[19] = target: T8, PFTAIRE2 (Homo sapiens, UniProt Q96Q40); assay: KINOMEscan; format: binding; settings: 1 μM of compound 4; read-out: POC
T8 construct: purchased Eurofins DiscoverX Corporation (KINOMEscan)

[20] = target: PIK4CB (Homo sapiens, UniProt Q9UBF8); assay: KINOMEscan; format: binding; settings: 1 μM of compound 4; read-out: POC
[21] = target: T9, RSK2(Kin.Dom.1-N-terminal) (Homo sapiens, UniProt P51812); assay: KINOMEscan; format: binding; settings: 1 μM of compound 4; read-out: POC
T9 construct: RSK2(Kin.Dom.1-N-terminal); purchased Eurofins DiscoverX Corporation (KINOMEscan screening service)

[22] = target: T10, SBK1 (Homo sapiens, UniProt Q52WX2); assay: KINOMEscan; format: binding; settings: 1 μM of compound 4; read-out: POC
T10 construct: purchased Eurofins DiscoverX (KINOMEscan service)

[23] = target: T11, TAOK1 (Homo sapiens, UniProt Q7L7X3); assay: KINOMEscan; format: binding; settings: 1 μM of compound 4; read-out: POC
T11 construct: purchased Eurofins DiscoverX Corporation

[24] = target: T12, TRPM6 (Homo sapiens, UniProt Q9BX84); assay: KINOMEscan; format: binding; settings: 1 μM of compound 4; read-out: POC
T12 construct: purchased Eurofins DiscoverX Corporation

[25] = target: T13, TTK (Homo sapiens, UniProt P33981); assay: KINOMEscan; format: binding; settings: 1 μM of compound 4; read-out: POC
T13 construct: purchased Eurofins DiscoverX Corporation

[26] = target: T14, WEE1 (Homo sapiens, UniProt P30291); assay: KINOMEscan; format: binding; settings: 1 μM of compound 4; read-out: POC
T14 construct: purchased Eurofins DiscoverX

[27] = target: T15, WNK2 (Homo sapiens, UniProt Q9Y3S1); assay: KINOMEscan; format: binding; settings: 1 μM of compound 4; read-out: POC
T15 construct: purchased Eurofins DiscoverX

[28] = target: T16, YANK1 (Homo sapiens, UniProt Q8WU08); assay: KINOMEscan; format: binding; settings: 1 μM of compound 4; read-out: POC
T16 construct: purchased Eurofins DiscoverX

[29] = test system: 468 kinases; assay: KINOMEscan selectivity screening; format: binding; settings: 1 μM
[30] = target: EGFR(L858R) (Homo sapiens, UniProt P00533, L858R); assay: Time-dependent kinase inhibition assay (Sox-based substrate); format: biochemical; set-up: EGFR [L858R], cytoplasmic domain (669-1210), GST-tagged, Carna; purchased Carna 08-510
Procedure: Time-dependent Kinase Inhibition Assays. Biochemical assays were performed with commercially available EGFR WT, cytoplasmic domain (669-1210), GST-tagged, Carna (Cat #/Lot #: 08-115/21CBS-0127H), EGFR [T790M/L858R] and EGFR [L858R], cytoplasmic domain (669-1210), GST-tagged, Carna (Cat #/Lot #: 08-510/12CBS-0765M). […] BSA was not included in this experiment to prevent interference with irreversible inhibitor characterization via off-target binding. All reactions were run for 240 minutes at 30° C. Time-dependent fluorescence from the Sox-based substrate was monitored in PerkinElmer ProxiPlate-384 Plus, white shallow well microplates (Cat. #6008280) Biotek Synergy Neo 2 microplate reader with excitation (360 nm) and emission (485 nm) wavelengths. 2 was dosed between 0 and 10 μM in 24-point curves with 1.5-fold dilutions. Fluorescence, determined with identical reactions but lacking purified enzyme or crude cell lysate was subtracted from the total fluorescence signal for each time point, with both determined in duplicate, to obtain corrected relative fluorescence units (RFU). Corrected RFU values then were plotted vs. time and the reaction velocity for the first ~40 min (initial reaction rates) were determined from the slope using GraphPad Prism (La Jolla, CA) with units of RFU/min.

Chain of EGFR(L858R) (P00533 669-1210 L858R): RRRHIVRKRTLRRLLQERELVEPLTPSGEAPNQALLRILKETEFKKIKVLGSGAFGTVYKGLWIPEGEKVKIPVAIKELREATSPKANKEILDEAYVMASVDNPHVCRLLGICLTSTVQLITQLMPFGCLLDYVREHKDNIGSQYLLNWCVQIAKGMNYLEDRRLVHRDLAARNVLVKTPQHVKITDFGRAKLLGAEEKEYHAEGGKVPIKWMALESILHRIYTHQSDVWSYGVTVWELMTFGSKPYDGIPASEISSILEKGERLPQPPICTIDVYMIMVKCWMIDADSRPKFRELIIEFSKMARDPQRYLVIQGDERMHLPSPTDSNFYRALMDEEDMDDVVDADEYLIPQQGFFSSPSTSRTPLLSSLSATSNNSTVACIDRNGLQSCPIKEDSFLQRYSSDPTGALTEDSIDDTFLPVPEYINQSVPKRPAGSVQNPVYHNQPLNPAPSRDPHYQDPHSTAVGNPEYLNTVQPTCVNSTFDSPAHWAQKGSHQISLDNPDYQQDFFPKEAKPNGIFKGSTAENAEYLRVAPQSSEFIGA
Chain of MEK2 (P36507 whole entry): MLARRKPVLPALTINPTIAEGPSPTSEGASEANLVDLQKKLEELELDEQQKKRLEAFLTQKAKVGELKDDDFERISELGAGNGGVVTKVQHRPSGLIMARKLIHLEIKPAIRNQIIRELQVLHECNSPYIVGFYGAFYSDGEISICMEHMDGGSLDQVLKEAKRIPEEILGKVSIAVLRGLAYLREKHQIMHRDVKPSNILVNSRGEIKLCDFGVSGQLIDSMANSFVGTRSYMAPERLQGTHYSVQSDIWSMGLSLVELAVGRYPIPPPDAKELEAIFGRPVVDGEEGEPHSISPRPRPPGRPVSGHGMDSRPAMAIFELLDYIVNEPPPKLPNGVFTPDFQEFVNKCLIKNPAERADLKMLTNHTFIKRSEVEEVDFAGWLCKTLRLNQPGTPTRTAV
Chain of JAK2(JH1domain-catalytic) (O60674 849-1124 limits assumed): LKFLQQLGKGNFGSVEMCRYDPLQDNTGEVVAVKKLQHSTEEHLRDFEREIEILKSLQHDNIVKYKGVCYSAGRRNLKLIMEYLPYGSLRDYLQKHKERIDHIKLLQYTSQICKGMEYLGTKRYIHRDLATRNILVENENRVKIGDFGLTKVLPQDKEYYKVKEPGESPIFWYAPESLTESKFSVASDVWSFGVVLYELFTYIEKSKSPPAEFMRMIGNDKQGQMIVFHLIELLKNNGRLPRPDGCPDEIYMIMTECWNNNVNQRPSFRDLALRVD
Chain of IRAK3 (Q9Y616 whole entry): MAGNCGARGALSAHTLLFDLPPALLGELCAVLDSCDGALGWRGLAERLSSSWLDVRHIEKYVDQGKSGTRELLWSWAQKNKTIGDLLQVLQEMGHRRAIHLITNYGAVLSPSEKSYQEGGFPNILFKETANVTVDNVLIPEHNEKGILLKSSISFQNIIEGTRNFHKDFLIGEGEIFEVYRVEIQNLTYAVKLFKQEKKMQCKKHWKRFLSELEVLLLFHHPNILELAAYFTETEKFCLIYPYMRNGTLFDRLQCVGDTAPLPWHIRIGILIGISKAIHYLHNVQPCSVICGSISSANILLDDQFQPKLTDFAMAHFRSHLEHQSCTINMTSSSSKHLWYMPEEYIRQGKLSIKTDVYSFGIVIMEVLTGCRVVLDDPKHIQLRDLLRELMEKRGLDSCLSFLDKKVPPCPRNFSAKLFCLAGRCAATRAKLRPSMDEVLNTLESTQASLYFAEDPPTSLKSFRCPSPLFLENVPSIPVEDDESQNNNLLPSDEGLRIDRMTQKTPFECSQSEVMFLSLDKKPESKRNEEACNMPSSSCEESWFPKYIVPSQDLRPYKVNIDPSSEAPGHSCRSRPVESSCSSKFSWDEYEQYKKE
T7 sequence (P09619 33-1106): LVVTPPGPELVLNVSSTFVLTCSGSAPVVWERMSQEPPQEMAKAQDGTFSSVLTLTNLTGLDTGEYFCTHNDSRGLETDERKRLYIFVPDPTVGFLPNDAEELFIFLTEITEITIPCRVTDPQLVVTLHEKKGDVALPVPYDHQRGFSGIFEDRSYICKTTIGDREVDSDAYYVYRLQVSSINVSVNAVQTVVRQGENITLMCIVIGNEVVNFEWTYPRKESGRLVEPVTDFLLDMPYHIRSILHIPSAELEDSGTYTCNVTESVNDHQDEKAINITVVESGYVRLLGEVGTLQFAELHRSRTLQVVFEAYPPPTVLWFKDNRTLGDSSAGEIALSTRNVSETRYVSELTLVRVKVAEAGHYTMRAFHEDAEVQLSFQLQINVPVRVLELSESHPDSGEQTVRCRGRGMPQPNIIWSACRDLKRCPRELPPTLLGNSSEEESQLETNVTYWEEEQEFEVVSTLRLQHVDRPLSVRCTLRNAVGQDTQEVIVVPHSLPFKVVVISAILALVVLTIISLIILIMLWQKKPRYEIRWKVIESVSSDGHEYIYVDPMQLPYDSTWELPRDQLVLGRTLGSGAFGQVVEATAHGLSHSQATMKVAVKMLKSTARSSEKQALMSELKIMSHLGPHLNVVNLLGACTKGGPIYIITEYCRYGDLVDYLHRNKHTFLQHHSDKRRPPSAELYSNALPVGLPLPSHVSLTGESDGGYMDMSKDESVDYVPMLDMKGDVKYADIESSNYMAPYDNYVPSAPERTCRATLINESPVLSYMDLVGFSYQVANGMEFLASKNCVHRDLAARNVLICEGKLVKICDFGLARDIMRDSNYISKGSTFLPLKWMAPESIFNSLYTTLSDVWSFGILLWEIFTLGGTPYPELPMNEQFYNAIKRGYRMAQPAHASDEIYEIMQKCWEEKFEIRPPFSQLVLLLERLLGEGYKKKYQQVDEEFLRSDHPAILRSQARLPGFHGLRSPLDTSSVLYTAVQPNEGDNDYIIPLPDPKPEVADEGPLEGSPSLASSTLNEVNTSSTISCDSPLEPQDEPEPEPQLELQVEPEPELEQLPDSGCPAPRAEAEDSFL
T4 sequence (P08631 whole entry): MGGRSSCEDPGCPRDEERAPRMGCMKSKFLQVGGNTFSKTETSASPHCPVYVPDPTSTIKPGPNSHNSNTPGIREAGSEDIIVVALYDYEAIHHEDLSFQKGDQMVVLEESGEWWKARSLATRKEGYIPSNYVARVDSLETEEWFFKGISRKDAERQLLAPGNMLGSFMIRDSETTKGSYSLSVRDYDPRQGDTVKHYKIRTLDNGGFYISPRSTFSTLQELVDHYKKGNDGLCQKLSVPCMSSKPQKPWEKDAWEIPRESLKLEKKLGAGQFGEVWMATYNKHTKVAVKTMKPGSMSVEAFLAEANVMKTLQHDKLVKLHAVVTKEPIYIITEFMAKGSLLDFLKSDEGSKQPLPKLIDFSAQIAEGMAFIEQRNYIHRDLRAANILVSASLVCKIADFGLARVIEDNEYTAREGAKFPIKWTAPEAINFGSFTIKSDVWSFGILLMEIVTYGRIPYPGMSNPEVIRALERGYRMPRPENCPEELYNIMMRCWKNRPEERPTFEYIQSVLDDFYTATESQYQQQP
Chain of MARK1 (Q9P0L2 whole entry): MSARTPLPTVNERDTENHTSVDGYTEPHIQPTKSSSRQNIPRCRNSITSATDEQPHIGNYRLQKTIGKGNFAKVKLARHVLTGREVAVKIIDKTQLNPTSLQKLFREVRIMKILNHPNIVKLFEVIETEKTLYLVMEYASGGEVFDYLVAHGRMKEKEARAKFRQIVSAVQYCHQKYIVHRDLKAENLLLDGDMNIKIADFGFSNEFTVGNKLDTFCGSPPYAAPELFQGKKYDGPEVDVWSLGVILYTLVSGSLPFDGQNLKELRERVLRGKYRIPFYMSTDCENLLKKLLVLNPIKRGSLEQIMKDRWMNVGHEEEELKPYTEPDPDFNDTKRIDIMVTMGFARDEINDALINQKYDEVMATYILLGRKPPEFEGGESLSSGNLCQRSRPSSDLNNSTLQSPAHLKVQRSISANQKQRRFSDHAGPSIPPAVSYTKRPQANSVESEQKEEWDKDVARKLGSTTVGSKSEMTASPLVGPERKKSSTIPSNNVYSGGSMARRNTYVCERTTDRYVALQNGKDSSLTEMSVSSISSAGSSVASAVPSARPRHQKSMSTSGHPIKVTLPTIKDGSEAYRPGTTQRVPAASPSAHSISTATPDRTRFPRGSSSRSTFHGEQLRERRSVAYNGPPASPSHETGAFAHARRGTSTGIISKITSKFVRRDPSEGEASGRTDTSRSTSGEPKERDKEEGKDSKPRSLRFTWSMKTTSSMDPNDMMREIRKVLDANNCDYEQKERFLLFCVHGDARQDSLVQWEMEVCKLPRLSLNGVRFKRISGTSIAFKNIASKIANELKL
T8 sequence (Q96Q40 whole entry): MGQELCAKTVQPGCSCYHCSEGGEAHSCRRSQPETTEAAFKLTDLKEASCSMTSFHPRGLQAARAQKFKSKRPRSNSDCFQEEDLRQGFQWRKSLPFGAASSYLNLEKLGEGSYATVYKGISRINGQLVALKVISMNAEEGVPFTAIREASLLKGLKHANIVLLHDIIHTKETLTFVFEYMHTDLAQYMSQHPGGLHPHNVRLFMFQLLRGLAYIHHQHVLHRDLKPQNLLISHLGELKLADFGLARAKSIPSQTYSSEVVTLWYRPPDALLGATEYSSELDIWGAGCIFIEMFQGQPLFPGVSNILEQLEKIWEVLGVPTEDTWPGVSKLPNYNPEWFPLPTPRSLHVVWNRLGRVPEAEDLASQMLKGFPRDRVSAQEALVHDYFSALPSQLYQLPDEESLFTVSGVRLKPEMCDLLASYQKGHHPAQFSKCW
T1 sequence (P00533 with tags, fused parts or gaps DEL752-759 limits assumed): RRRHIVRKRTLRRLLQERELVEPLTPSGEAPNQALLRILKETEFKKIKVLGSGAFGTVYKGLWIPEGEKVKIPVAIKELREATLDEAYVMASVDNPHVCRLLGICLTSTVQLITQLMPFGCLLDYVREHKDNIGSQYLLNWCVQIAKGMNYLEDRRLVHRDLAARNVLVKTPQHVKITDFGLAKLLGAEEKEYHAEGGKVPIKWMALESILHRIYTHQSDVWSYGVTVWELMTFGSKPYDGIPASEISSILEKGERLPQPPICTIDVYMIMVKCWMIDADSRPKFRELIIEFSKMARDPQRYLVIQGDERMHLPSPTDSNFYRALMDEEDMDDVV

C=CC(=O)Nc1ccc(OC)c(Nc2cc(-c3[nH]c(CC)nc3-c3cccc(NC(=O)c4cccc5c4NC(=O)c4ccccc4N5)c3)ccn2)c1 [Compound 4, N-(3-(5-(2-((5-Acrylamido-2-methoxyphenyl)amino)pyridin-4-yl)-2-ethyl-1H-imidazol-4-yl)phenyl)-11-oxo-10,11-dihydro-5H-dibenzo[b,e][1,4]diazepine-9-carboxamide]
remaining binding at 1 µM [1]: 95% | remaining binding at 1 µM [2]: 45% | remaining binding at 1 µM [3]: 6% | remaining binding at 1 µM [4]: 86% | remaining binding at 1 µM [5]: 100% | remaining binding at 1 µM [6]: 14% | remaining binding at 1 µM [7]: 39% | remaining binding at 1 µM [8]: 86% | remaining binding at 1 µM [9]: 100% | remaining binding at 1 µM [10]: 100% | remaining binding at 1 µM [11]: 100% | remaining binding at 1 µM [12]: 92% | remaining binding at 1 µM [13]: 100% | remaining binding at 1 µM [14]: 100% | remaining binding at 1 µM [15]: 95% | remaining binding at 1 µM [16]: 78% | remaining binding at 1 µM [17]: 100% | remaining binding at 1 µM [18]: 100% | remaining binding at 1 µM [19]: 84% | remaining binding at 1 µM [20]: 93% | remaining binding at 1 µM [21]: 100% | remaining binding at 1 µM [22]: 84% | remaining binding at 1 µM [23]: 100% | remaining binding at 1 µM [24]: 99% | remaining binding at 1 µM [25]: 72% | remaining binding at 1 µM [26]: 85% | remaining binding at 1 µM [27]: 62% | remaining binding at 1 µM [28]: 84% | S (35) kinome selectivity [29]: 0.084 | kinact [30]: 0.00867 s⁻¹ | Ki ([30]; read-out: KI, LR): 610 ± 30 nM | kinact/KI ([30]; read-out: kinact/KI, LR): 14100 ± 300 M⁻¹ s⁻¹
